This note sets out measurements from patent publication US20120142646A1, “Novel Compounds 621” (priority 2006, published 2012).

In assay [1] the target is T1, Adrenergic β2 (Homo sapiens, UniProt P07550).
T1 construct: Adherent H292 cells were removed from tissue culture flasks; endogenous in cells; host or cells: H292 cells
The assay is described as follows: Adrenergic β2 mediated cAMP production in H292 cells (AlphaScreen cAMP detection). It counts as cell-based. On the set-up: key to β2 Int Act: fraction of formoterol maximum activity (formoterol = 1). The method, boiled down:
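H292 cells pre-treated 10 min with rolipram (300 μM final), then given agonist for 60 min at room temperature in HBSS/10 mM HEPES pH 7.4, 1.6% DMSO final. Lysate cAMP measured by AlphaScreen against a cAMP standard curve. Four-parameter fit gives pEC50; intrinsic activity relative to formoterol maximum.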
Background: cAMP levels reflect the balance of adenylyl cyclase and phosphodiesterase activity.

Assay [2] addresses T2, recombinant human adrenergic beta 1 receptors (Homo sapiens, UniProt P08588).
T2 construct: purchased Euroscreen
The assay is described as follows: Adrenergic β1 [125I]-Iodocyanopindolol binding. Particulars: inhibition of [125I]-Iodocyanopindolol binding (0.036 nM); read-out: β1 bind p IC50 (converted). As for the experimental part: Membranes containing recombinant human adrenergic beta 1 receptors were obtained from Euroscreen. These were diluted in Assay Buffer (50 mM HEPES, 1 mM EDTA, 120 mM NaCl, 0.1% gelatin, pH 7.4) to provide a final concentration of membranes that gave a clear window between maximum and minimum specific binding.
Assays were performed in U-bottomed 96-well polypropylene plates. 10 μL [^125I]-Iodocyanopindolol (0.036 nM final concentration) and 10 μL of test compound (10× final concentration) were added to each test well. For each assay plate 8 replicates were obtained for [^125I]-Iodocyanopindolol binding in the presence of 10 μL vehicle (10% (v/v) DMSO in Assay Buffer; defining maximum binding) or 10 μL Propranolol (10 μM final is concentration; defining non-specific binding (NSB)). Membranes were then added to achieve a final volume of 100 μL. […] Five washes with 250 μL wash buffer (50 mM HEPES, 1 mM EDTA, 120 mM NaCl, pH 7.4) were performed at 4° C. to remove unbound radioactivity. […] The plates were sealed (TopSeal A) and filter-bound radioactivity was measured with a scintillation counter (TopCount, Packard BioScience) using a 3-minute counting protocol.
(§1) Total specific binding (B0) was determined by subtracting the mean NSB from the mean maximum binding. […]

Assay [3] addresses T3, recombinant human Dopamine Subtype D2s receptors (Homo sapiens, UniProt P14416).
T3 construct: purchased Perkin Elmer
The assay is described as follows: Dopamine D2 [3H]-spiperone binding. Particulars: inhibition of [3H]-spiperone binding (0.16 nM); read-out: D2 bind pIC50 (converted). As for the experimental part:
Membranes containing recombinant human Dopamine Subtype D2s receptors were obtained from Perkin Elmer. These were diluted in Assay Buffer (50 mM HEPES, 1 mM EDTA, 120 mM NaCl, 0.1% gelatin, pH 7.4) to provide a final concentration of membranes that gave a clear window between maximum and minimum specific binding.
Assays were performed in U-bottomed 96-well polypropylene plates. 30 μL [^3H]-spiperone (0.16 nM final concentration) and 30 μL of test compound (10× final concentration) were added to each test well. For each assay plate 8 replicates were obtained for [^3H]-spiperone binding in the presence of 30 μL vehicle (10% (v/v) DMSO in Assay Buffer; defining maximum binding) or 30 μL Haloperidol (10 μM final concentration; defining non-specific binding (NSB)). Membranes were then added to achieve a final volume of 300 μL. […] Five washes with 250 μL wash buffer (50 mM HEPES, 1 mM EDTA, 120 mM NaCl, pH 7.4) were performed at 4° C. to remove unbound radioactivity. […] The plates were sealed (TopSeal A) and filter-bound radioactivity was measured with a scintillation counter (TopCount, Packard BioScience) using a 3-minute counting protocol.
as §1

T1 sequence (P07550 whole entry): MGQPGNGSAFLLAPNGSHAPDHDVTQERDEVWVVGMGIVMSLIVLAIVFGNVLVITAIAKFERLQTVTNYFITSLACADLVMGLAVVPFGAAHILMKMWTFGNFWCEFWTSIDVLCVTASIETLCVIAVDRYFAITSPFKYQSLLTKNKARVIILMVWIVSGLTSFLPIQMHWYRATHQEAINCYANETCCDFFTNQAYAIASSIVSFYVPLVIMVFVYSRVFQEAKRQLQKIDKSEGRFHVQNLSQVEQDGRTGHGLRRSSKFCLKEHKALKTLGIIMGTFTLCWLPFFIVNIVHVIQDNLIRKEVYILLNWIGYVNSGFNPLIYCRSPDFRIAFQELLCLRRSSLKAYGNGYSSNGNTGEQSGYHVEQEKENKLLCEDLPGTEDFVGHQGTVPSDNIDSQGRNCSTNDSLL
T2 sequence (P08588 whole entry): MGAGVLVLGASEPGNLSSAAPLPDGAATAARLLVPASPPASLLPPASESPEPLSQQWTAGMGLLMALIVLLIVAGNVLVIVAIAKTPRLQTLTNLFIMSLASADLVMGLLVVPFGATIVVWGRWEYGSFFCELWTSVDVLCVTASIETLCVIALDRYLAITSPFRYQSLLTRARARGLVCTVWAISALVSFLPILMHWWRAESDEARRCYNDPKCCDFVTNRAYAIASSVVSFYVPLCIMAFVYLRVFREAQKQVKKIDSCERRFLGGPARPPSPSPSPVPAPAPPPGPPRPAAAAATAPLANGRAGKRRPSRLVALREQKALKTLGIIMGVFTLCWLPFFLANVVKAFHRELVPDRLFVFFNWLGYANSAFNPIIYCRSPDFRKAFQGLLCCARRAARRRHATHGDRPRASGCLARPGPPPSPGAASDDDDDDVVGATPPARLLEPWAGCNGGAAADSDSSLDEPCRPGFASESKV
T3 sequence (P14416 1-414 isoform P14416-2): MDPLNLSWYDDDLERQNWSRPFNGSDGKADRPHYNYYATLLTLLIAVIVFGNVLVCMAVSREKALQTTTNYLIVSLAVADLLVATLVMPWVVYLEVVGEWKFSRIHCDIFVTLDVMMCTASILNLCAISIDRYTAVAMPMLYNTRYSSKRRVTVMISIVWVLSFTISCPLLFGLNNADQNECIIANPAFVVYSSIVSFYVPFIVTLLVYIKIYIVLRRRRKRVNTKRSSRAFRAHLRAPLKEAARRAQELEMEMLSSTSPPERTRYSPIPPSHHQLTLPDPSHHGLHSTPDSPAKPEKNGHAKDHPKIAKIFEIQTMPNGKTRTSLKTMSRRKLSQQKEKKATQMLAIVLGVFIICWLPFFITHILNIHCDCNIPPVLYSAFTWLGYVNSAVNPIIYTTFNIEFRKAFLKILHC

Take `CCCCC[C@@H](C)N(CCNCCc1ccc(O)c2c1OCC(=O)N2)C(=O)CCNCCc1ccccc1` [Example 60, (R)—N-(Heptan-2-yl)-N-(2-(2-(5-hydroxy-3-oxo-3,4-dihydro-2H-benzo[b][1,4]oxazin-8-yl)ethylamino)ethyl)-3-(phenethylamino)propanamide bis(trifluoroacetate)]: the EC50 in assay [1] (H292 cells, cAMP production, 60 minutes at room temperature, 300 μM rolipram, read-out: β2 pEC50 (converted)) is 3.98 nM. Also, in assay [1] (Intrinsic Activity as a fraction relative to the maximum activity determined for formoterol), the “β2 Int Act” value came out at 0.92. Further, the IC50 in assay [2] is 2510 nM; in assay [3], 50.1 nM.
